According to PubChem BioAssay AID1918933 (Molecular Pharmacology Branch, DTP, NCI, 2023):

Test system: 186277-243-T-J2-PDC complex spheroid viability
Test: Anticancer human tumor 186277-243-T-J2-PDC patient-derived colon adenocarcinoma cell line growth inhibition
Settings: for IC50: curve of first compound; for viability, T/C: stronger effect = lower value
In short: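 Multicellular complex spheroids of tumor cells with human endothelial cells (HUVEC) and mesenchymal stem cells; the LSD1 inhibitor iadademstat was combined with standard-of-care or investigational agents. Top concentration at or near clinical Cmax, half-log dilutions; final DMSO ≤0.25%.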

[1] = second compound 0.1 µM, first compound 0.000316 µM
[2] = second compound 0.1 µM, first compound 0.001 µM
[3] = second compound 0.1 µM, first compound 0.00316 µM
[4] = second compound 0.1 µM, first compound 0.01 µM
[5] = second compound 0.1 µM, first compound 0.0316 µM
[6] = second compound 0.1 µM, first compound 0.1 µM
[7] = second compound 0.316 µM, first compound 0.000316 µM
[8] = second compound 0.316 µM, first compound 0.001 µM
[9] = second compound 0.316 µM, first compound 0.00316 µM
[10] = second compound 0.316 µM, first compound 0.01 µM
[11] = second compound 0.316 µM, first compound 0.0316 µM
[12] = second compound 0.316 µM, first compound 0.1 µM
[13] = second compound 1 µM, first compound 0.000316 µM
[14] = second compound 1 µM, first compound 0.001 µM
[15] = second compound 1 µM, first compound 0.00316 µM
[16] = second compound 1 µM, first compound 0.01 µM
[17] = second compound 1 µM, first compound 0.0316 µM
[18] = second compound 1 µM, first compound 0.1 µM
[19] = second compound 3.16 µM, first compound 0.000316 µM
[20] = second compound 3.16 µM, first compound 0.001 µM
[21] = second compound 3.16 µM, first compound 0.00316 µM
[22] = second compound 3.16 µM, first compound 0.01 µM
[23] = second compound 3.16 µM, first compound 0.0316 µM
[24] = second compound 3.16 µM, first compound 0.1 µM
[25] = second compound 10 µM, first compound 0.000316 µM
[26] = second compound 10 µM, first compound 0.001 µM
[27] = second compound 10 µM, first compound 0.00316 µM
[28] = second compound 10 µM, first compound 0.01 µM
[29] = second compound 10 µM, first compound 0.0316 µM
[30] = second compound 10 µM, first compound 0.1 µM
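Also: 7 day exposure to compounds.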
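For viability, T/C in this document: 100% = DMSO vehicle control viability.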

SMILES | IC50 (second compound 0.1 µM) | IC50 (second compound 0.316 µM) | IC50 (second compound 1 µM) | IC50 (second compound 3.16 µM) | IC50 (second compound 10 µM) | viability, T/C [3] | viability, T/C [4] | viability, T/C [5] | viability, T/C [6] | viability, T/C [9] | viability, T/C [10] | viability, T/C [11] | viability, T/C [12] | viability, T/C [15] | viability, T/C [16] | viability, T/C [17] | viability, T/C [18] | viability, T/C [21] | viability, T/C [22] | viability, T/C [23] | further results
CC(C)CC(NC(=O)C(Cc1ccccc1)NC(=O)c1cnccn1)B(O)O (stereo not given) + NC1CC1c1ccc(-c2cccc(O)c2)cc1 | 0.601 nM | 0.547 nM | 0.548 nM | 0.57 nM | 0.557 nM | 0.06% | 0.02% | 0.02% | 0.12% | 0.04% | 0.01% | 0.37% | 0.1% | 0.05% | 0.02% | 0.07% | 0.1% | 0.06% | 0.02% | 0.64% | viability, T/C [1]: 108%; viability, T/C [2]: 3.98%; viability, T/C [7]: 94.1%; viability, T/C [8]: 1.53%; viability, T/C [13]: 94.3%; viability, T/C [14]: 1.48%; viability, T/C [19]: 101%; viability, T/C [20]: 1.66%; viability, T/C [24]: 0.74%; viability, T/C [25]: 97.9%; viability, T/C [26]: 0.65%; viability, T/C [27]: 0.13%; viability, T/C [28]: 0.2%; viability, T/C [29]: 0.13%; viability, T/C [30]: 0.89%
CC(C)CC(NC(=O)CNC(=O)c1cc(Cl)ccc1Cl)B1OC(=O)CC(CC(=O)O)(C(=O)O)O1 (stereo not given) + NC1CC1c1ccc(-c2cccc(O)c2)cc1 | 10.5 nM | 11 nM | 10.7 nM | 10.6 nM | 7.75 nM | 111% | 51.9% | 6.34% | 0.22% | 111% | 54.3% | 1.86% | 0.17% | 116% | 53.2% | 1.62% | 0.2% | 110% | 52.6% | 1.26% | viability, T/C [1]: 110%; viability, T/C [2]: 95.8%; viability, T/C [7]: 110%; viability, T/C [8]: 111%; viability, T/C [13]: 110%; viability, T/C [14]: 111%; viability, T/C [19]: 111%; viability, T/C [20]: 117%; viability, T/C [24]: 0.43%; viability, T/C [25]: 117%; viability, T/C [26]: 114%; viability, T/C [27]: 100%; viability, T/C [28]: 36.1%; viability, T/C [29]: 0.83%; viability, T/C [30]: 0.22%
COc1cc(Nc2ncc3c(n2)-c2ccc(Cl)cc2C(c2c(F)cccc2OC)=NC3)ccc1C(=O)O + NC1CC1c1ccc(-c2cccc(O)c2)cc1 | > 1000 nM | > 1000 nM | > 1000 nM | > 1000 nM | > 1000 nM | 128% | 115% | 116% | 107% | 133% | 125% | 119% | 108% | 140% | 132% | 130% | 117% | 155% | 143% | 143% | viability, T/C (second compound 0.1 µM, first compound 0.316 µM): 124%; viability, T/C (second compound 0.1 µM, first compound 1 µM): 111%; viability, T/C (second compound 0.316 µM, first compound 0.316 µM): 124%; viability, T/C (second compound 0.316 µM, first compound 1 µM): 109%; viability, T/C (second compound 1 µM, first compound 0.316 µM): 131%; viability, T/C (second compound 1 µM, first compound 1 µM): 114%; viability, T/C [24]: 126%; viability, T/C (second compound 3.16 µM, first compound 0.316 µM): 128%; viability, T/C (second compound 3.16 µM, first compound 1 µM): 111%; viability, T/C [27]: 137%; viability, T/C [28]: 139%; viability, T/C [29]: 130%; viability, T/C [30]: 123%; viability, T/C (second compound 10 µM, first compound 0.316 µM): 120%; viability, T/C (second compound 10 µM, first compound 1 µM): 89.8%
